Laboratory results from US20100267561A1, “HERBICIDAL PYRIDAZINONE DERIVATIVES” (priority 2007, published 2010).

Key:
Test in all cases: Test E pre-/postemergence plant response
Format in all cases: in vivo
[1] = system: common chickweed (Stellaria media); conditions: 4 g ai/ha, Postemergence, scale 0 to 100
Description: (§1) Seeds of plant species selected from bermudagrass (Cynodon dactylon), Surinam grass (Brachiaria decumbens), large crabgrass (Digitaria sanguinalis), green foxtail (Setaria viridis), goosegrass (Eleusine indica), johnsongrass (Sorghum halepense), kochia (Kochia scoparia), pitted morningglory (Ipomoea lacunosa), purple nutsedge (Cyperus rotundus), common ragweed (Ambrosia elation), black mustard (Brassica nigra), guineagrass (Panicum maximum), dallisgrass (Paspalum dilatatum), barnyardgrass (Echinochloa crus-galli), southern (S.) sandbur (Cenchrus echinatus), common sowthistle (Sonchus oleraceous), prickly sida (Sida spinosa), Italian ryegrass (Lolium multiflorum), common purslane (Portulaca oleracea), broadleaf signalgrass (Brachiaria platyphylla), common groundsel (Senecio vulgaris), common chickweed (Stellaria media), Virginia (V.) dayflower (Commelina virginica), tropical (T.) spiderwort (Commelina benghalensis), annual bluegrass (Poa annua), naked crabgrass (Digitaria nuda), itchgrass (Rottboellia cochinchinensis), quackgrass (Elytrigia repens), Canada horseweed (Conyza canadensis), field bindweed (Convolvulus arvensis), spanishneedles (Bidens bipinnata), common mallow (Malva sylvestris) and Russian thistle (Salsola kali) were planted and treated preemergence with test chemicals formulated in a non-phytotoxic solvent mixture which included a surfactant. At the same time, plants selected from these weed species were treated with postemergence applications of some of the test chemicals formulated in the same manner. Plants ranged in height from 2 to 18 cm (1- to 4-leaf stage) for postemergence treatments.
(§2) Treated plants and controls were maintained in a greenhouse for 14 to 21 days, after which time all species were compared to controls and visually evaluated. Plant response ratings, summarized in Table E, are based on a scale of 0 to 100 where 0 is no effect and 100 is complete control. A dash (-) response means no test result.

[2] = system: black mustard (Brassica nigra); conditions: scale 0 to 100
Description: as §1, §2

[3] = system: bermudagrass (Cynodon dactylon); conditions: scale 0 to 100
Description: as §1, §2

[4] = system: Italian ryegrass (Lolium multiflorum); conditions: scale 0 to 100
Description: as §1, §2

[5] = system: pitted morningglory (Ipomoea lacunosa); conditions: scale 0 to 100
Description: as §1, §2

[6] = system: goosegrass (Eleusine indica); conditions: scale 0 to 100
Description: as §1, §2

[7] = system: barnyardgrass (Echinochloa crus-galli)
Description: as §1, §2

[8] = system: guineagrass (Panicum maximum); conditions: scale 0 to 100
Description: as §1, §2

[9] = system: itchgrass (Rottboellia cochinchinensis); conditions: scale 0 to 100
Description: as §1, §2

[10] = system: annual bluegrass (Poa annua); conditions: scale 0 to 100
Description: as §1, §2

[11] = system: naked crabgrass (Digitaria nuda); conditions: scale 0 to 100
Description: as §1, §2

CCc1cc(-c2ccc(C(F)(F)F)cc2)nn1-c1c(OS(C)(=O)=O)cnn(C)c1=O [Compound 19]
Plant response rating, Chickweed [1]: 0 | Plant response rating, Mustard, Black ([2]; 4 g ai/ha, Postemergence): 0 | Plant response rating, Mustard, Black ([2]; 8 g ai/ha, Preemergence): 0 | Plant response rating, Mustard, Black ([2]; 16 g ai/ha, Preemergence): 0 | Plant response rating, Mustard, Black ([2]; 31 g ai/ha, Preemergence): 0 | Plant response rating, Mustard, Black ([2]; Postemergence, 8 g ai/ha): 0 | Plant response rating, Mustard, Black ([2]; Postemergence, 16 g ai/ha): 0 | Plant response rating, Mustard, Black ([2]; Postemergence, 31 g ai/ha): 0 | Plant response rating, Mustard, Black ([2]; Preemergence, 4 g ai/ha): 0 | Plant response rating, Bermudagrass ([3]; 4 g ai/ha, Postemergence): 15 | Plant response rating, Bermudagrass ([3]; 8 g ai/ha, Preemergence): 60 | Plant response rating, Bermudagrass ([3]; 16 g ai/ha, Preemergence): 95 | Plant response rating, Bermudagrass ([3]; 31 g ai/ha, Preemergence): 100 | Plant response rating, Bermudagrass ([3]; Postemergence, 8 g ai/ha): 35 | Plant response rating, Bermudagrass ([3]; Postemergence, 16 g ai/ha): 35 | Plant response rating, Bermudagrass ([3]; Postemergence, 31 g ai/ha): 80 | Plant response rating, Bermudagrass ([3]; Preemergence, 4 g ai/ha): 25 | Plant response rating, Ryegrass, Italian ([4]; 4 g ai/ha, Postemergence): 50 | Plant response rating, Ryegrass, Italian ([4]; 16 g ai/ha, Preemergence): 100 | Plant response rating, Ryegrass, Italian ([4]; 31 g ai/ha, Preemergence): 100 | Plant response rating, Ryegrass, Italian ([4]; Postemergence, 8 g ai/ha): 90 | Plant response rating, Ryegrass, Italian ([4]; Postemergence, 16 g ai/ha): 100 | Plant response rating, Ryegrass, Italian ([4]; Postemergence, 31 g ai/ha): 100 | Plant response rating, Ryegrass, Italian ([4]; Preemergence, 4 g ai/ha): 65 | Plant response rating, Morningglory ([5]; 4 g ai/ha, Postemergence): 0 | Plant response rating, Morningglory ([5]; 16 g ai/ha, Preemergence): 0 | Plant response rating, Morningglory ([5]; 31 g ai/ha, Preemergence): 0 | Plant response rating, Morningglory ([5]; Postemergence, 8 g ai/ha): 0 | Plant response rating, Morningglory ([5]; Postemergence, 16 g ai/ha): 0 | Plant response rating, Morningglory ([5]; Postemergence, 31 g ai/ha): 0 | Plant response rating, Morningglory ([5]; Preemergence, 4 g ai/ha): 0 | Plant response rating, Goosegrass ([6]; 4 g ai/ha, Postemergence): 0 | Plant response rating, Goosegrass ([6]; 8 g ai/ha, Preemergence): 40 | Plant response rating, Goosegrass ([6]; 16 g ai/ha, Preemergence): 70 | Plant response rating, Goosegrass ([6]; 31 g ai/ha, Preemergence): 90 | Plant response rating, Goosegrass ([6]; Postemergence, 8 g ai/ha): 25 | Plant response rating, Goosegrass ([6]; Postemergence, 16 g ai/ha): 60 | Plant response rating, Goosegrass ([6]; Postemergence, 31 g ai/ha): 75 | Plant response rating, Goosegrass ([6]; Preemergence, 4 g ai/ha): 15 | Plant response rating, Barnyardgrass ([7]; 4 g ai/ha, Postemergence, scale 0 to 100): 90 | Plant response rating, Barnyardgrass ([7]; 8 g ai/ha, Preemergence, scale 0 to 100): 75 | Plant response rating, Barnyardgrass ([7]; 16 g ai/ha, Preemergence, scale 0 to 100): 95 | Plant response rating, Barnyardgrass ([7]; 31 g ai/ha, Preemergence, scale 0 to 100): 100 | Plant response rating, Barnyardgrass ([7]; Postemergence, 8 g ai/ha, scale 0 to 100): 98 | Plant response rating, Barnyardgrass ([7]; Postemergence, 16 g ai/ha, scale 0 to 100): 100 | Plant response rating, Barnyardgrass ([7]; Postemergence, 31 g ai/ha, scale 0 to 100): 100 | Plant response rating, Barnyardgrass ([7]; Preemergence, 4 g ai/ha, scale 0 to 100, 0 no effect, 100 complete control): 0 | Plant response rating, Guineagrass ([8]; 4 g ai/ha, Postemergence): 80 | Plant response rating, Guineagrass ([8]; 16 g ai/ha, Preemergence): 100 | Plant response rating, Guineagrass ([8]; 31 g ai/ha, Preemergence): 100 | Plant response rating, Guineagrass ([8]; Postemergence, 8 g ai/ha): 90 | Plant response rating, Guineagrass ([8]; Postemergence, 16 g ai/ha): 95 | Plant response rating, Guineagrass ([8]; Postemergence, 31 g ai/ha): 98 | Plant response rating, Guineagrass ([8]; Preemergence, 4 g ai/ha): 60 | Plant response rating, Itchgrass ([9]; 4 g ai/ha, Postemergence): 0 | Plant response rating, Itchgrass ([9]; 16 g ai/ha, Preemergence): 65 | Plant response rating, Itchgrass ([9]; 31 g ai/ha, Preemergence): 80 | Plant response rating, Itchgrass ([9]; Postemergence, 8 g ai/ha): 20 | Plant response rating, Itchgrass ([9]; Postemergence, 16 g ai/ha): 70 | Plant response rating, Itchgrass ([9]; Postemergence, 31 g ai/ha): 80 | Plant response rating, Itchgrass ([9]; Preemergence, 4 g ai/ha): 10 | Plant response rating, Bluegrass ([10]; 4 g ai/ha, Postemergence): 0 | Plant response rating, Bluegrass ([10]; 8 g ai/ha, Preemergence): 0 | Plant response rating, Bluegrass ([10]; 16 g ai/ha, Preemergence): 0 | Plant response rating, Bluegrass ([10]; 31 g ai/ha, Preemergence): 0 | Plant response rating, Bluegrass ([10]; Postemergence, 8 g ai/ha): 0 | Plant response rating, Bluegrass ([10]; Postemergence, 16 g ai/ha): 0 | Plant response rating, Bluegrass ([10]; Postemergence, 31 g ai/ha): 0 | Plant response rating, Bluegrass ([10]; Preemergence, 4 g ai/ha): 0 | Plant response rating, Crabgrass, Naked ([11]; 4 g ai/ha, Postemergence): 40 | Plant response rating, Crabgrass, Naked ([11]; 8 g ai/ha, Preemergence): 98 | Plant response rating, Crabgrass, Naked ([11]; 31 g ai/ha, Preemergence): 98 | Plant response rating, Crabgrass, Naked ([11]; Postemergence, 8 g ai/ha): 85 | Plant response rating, Crabgrass, Naked ([11]; Postemergence, 16 g ai/ha): 90 | Plant response rating, Crabgrass, Naked ([11]; Postemergence, 31 g ai/ha): 98 | Plant response rating, Crabgrass, Naked ([11]; Preemergence, 4 g ai/ha): 35
